Source: ChEMBL document CHEMBL3259687, “Synthesis and identification of chiral aminomethylpiperidine carboxamides as inhibitor of collagen induced platelet activation” (Eur J Med Chem, 2014)
The source made the active and inactive calls. No cut-off for these calls is given here.

Tests used:
[1] = Antiplatelet activity in human platelet-rich plasma assessed as inhibition of collagen-induced platelet aggregation at 10 uM treated for 5 mins prior to collagen challenge for 5 mins by turbidimetric method; format: functional
[2] = test system: Mus musculus; test: Antithrombotic activity in mouse assessed as protection against collagen-epinephrine-induced pulmonary thromboembolism at 30 uM/kg, po administered 60 mins prior to thrombotic challenge; format: functional
[3] = test system: Mus musculus; test: Prolongation of bleeding time in mouse at 30 uM/kg, po administered as single dose by tail excision method; format: ADME, organism-based; settings: in vivo
[4] = Antiplatelet activity in human platelet-rich plasma assessed as inhibition of collagen-induced platelet aggregation at 30 uM treated for 5 mins prior to collagen challenge for 5 mins by turbidimetric method; format: functional
[5] = test system: Platelet; test: Antiplatelet activity in human platelet-rich plasma assessed as inhibition of TRAP-induced platelet aggregation treated for 5 mins prior to TRAP challenge for 5 mins by turbidimetric method; format: functional, cell-free
[6] = Antiplatelet activity in human platelet-rich plasma assessed as inhibition of arachidonic acid-induced platelet aggregation treated for 5 mins prior to arachidonic acid challenge for 5 mins by turbidimetric method; format: functional, cell-free
[7] = test system: Platelet; test: Antiplatelet activity in human platelet-rich plasma assessed as inhibition of ristocetin-induced platelet aggregation treated for 5 mins prior to ristocetin challenge for 5 mins by turbidimetric method; format: functional, cell-free
[8] = test system: Platelet; test: Antiplatelet activity in human platelet-rich plasma assessed as inhibition of ADP-induced platelet aggregation treated for 5 mins prior to ADP challenge for 5 mins by turbidimetric method; format: functional, cell-free
[9] = Antiplatelet activity in human platelet-rich plasma assessed as inhibition of U46619-induced platelet aggregation treated for 5 mins prior to U46619 challenge for 5 mins by turbidimetric method; format: functional, cell-free
[10] = Antiplatelet activity in human platelet-rich plasma assessed as inhibition of collagen-induced platelet aggregation treated for 5 mins prior to collagen challenge for 5 mins by turbidimetric method; format: functional, cell-free

SMILES	inhibition at 10 µM [1]	Activity [2]	further results
CC(C)(C)OC(=O)NC[C@@H]1CCCN(C(=O)[C@@H]2CCC(=O)N2Cc2cccc(C#N)c2)C1	6%	30%	
CC(C)(C)OC(=O)NC[C@H]1CCCN(C(=O)[C@@H]2CCC(=O)N2Cc2ccc(C#N)cc2)C1	25%	10%	
CC(C)(C)OC(=O)NC[C@H]1CCCN(C(=O)[C@@H]2CCC(=O)N2Cc2c(Cl)cccc2Cl)C1	22%	10%	
Cc1ccc(C(=O)N2CSC[C@H]2C(=O)N2CCC[C@H](CNC(=O)OC(C)(C)C)C2)cc1		40%	Activity [3]: 50%
CC(C)(C)OC(=O)NCC1CCCN(C(=O)[C@@H]2CCC(=O)N2Cc2ccccc2Cl)C1 (mixture of isomers)		70%	Activity [3]: 60%; inhibition at 30 µM [4]: 15%
Cc1ccc(CN2C(=O)CCC[C@H]2C(=O)N2CCC[C@H](CNC(=O)OC(C)(C)C)C2)cc1	22%	50%	
Cc1ccc(CN2CSC[C@H]2C(=O)N2CCC[C@H](CNC(=O)OC(C)(C)C)C2)cc1		60%	Activity [3]: 72%; inhibition [5]: inactive; inhibition (INH) [6]: 93%; IC50 ([6]; Homo sapiens, Platelet, Plasma): 6 µM; inhibition [7]: inactive; inhibition [8]: inactive; inhibition (INH) [9]: 100%; IC50 ([9]; Homo sapiens, Platelet, Plasma): 2.7 µM; inhibition (INH) [10]: 87%; IC50 ([10]; Homo sapiens, Platelet, Plasma): 3.3 µM
COc1cccc(CN2C(=O)CC[C@H]2C(=O)N2CCC[C@H](CNC(=O)OC(C)(C)C)C2)c1	6%	22.3%	
Cc1ccc(CN2C(=O)COC(C)[C@H]2C(=O)N2CCC[C@@H](CNC(=O)OC(C)(C)C)C2)cc1 (stereo partly drawn)		20%	
O=C(CNC(=O)OCc1ccccc1)NCC1CCCN(C(=O)[C@@H]2CCC(=O)N2Cc2ccccc2)C1 (mixture of isomers)		40%	Activity [3]: 13%; inhibition at 30 µM [4]: 12%
Cc1ccc(C(=O)N2CSC[C@H]2C(=O)N2CCC[C@@H](CNC(=O)OC(C)(C)C)C2)cc1		10%	Activity [3]: 8%
CC(C)(C)OC(=O)NCC1CCCN(C(=O)[C@@H]2CCC(=O)N2Cc2ccc(Br)cc2)C1 (mixture of isomers)		67%	Activity [3]: 60%; inhibition at 30 µM [4]: 66.4%
CC(C)(C)OC(=O)NC[C@@H]1CCCN(C(=O)[C@@H]2CCC(=O)N2Cc2ccc3ccccc3c2)C1	29%	30%	
CC(C)(C)OC(=O)NC[C@H]1CCCN(C(=O)[C@@H]2CCC(=O)N2Cc2ccc(Cl)c(Cl)c2)C1	24%	30%	
CC1OCC(=O)N(Cc2ccccc2)[C@@H]1C(=O)N1CCC[C@H](CNC(=O)OC(C)(C)C)C1 (stereo partly drawn)		20%	
CC(C)(C)OC(=O)NC[C@H]1CCCN(C(=O)[C@@H]2CCC(=O)N2Cc2ccc(Cl)cc2)C1	21%	15%	
CC(C)(C)OC(=O)NC[C@@H]1CCCN(C(=O)[C@@H]2CCC(=O)N2Cc2ccccc2Br)C1	27%	50%	
Cc1ccc(CN2C(=O)CC[C@H]2C(=O)N2CCC[C@@H](CNC(=O)[C@H](Cc3ccccc3)NC(=O)OCc3ccccc3)C2)cc1		30%	
CC(C)(C)OC(=O)NCC1CCN(C(=O)[C@@H]2CCC(=O)N2Cc2c(Cl)cccc2Cl)CC1		70%	Activity [3]: 50%; inhibition at 30 µM [4]: 80%
Cc1ccc(CN2C(=O)COC(C)[C@H]2C(=O)N2CCC[C@H](CNC(=O)OC(C)(C)C)C2)cc1 (stereo partly drawn)		30%	
CC(C)(C)OC(=O)NC[C@@H]1CCCN(C(=O)[C@@H]2CCC(=O)N2Cc2ccc(C#N)cc2)C1	8%	60%	
O=C([C@@H]1CCC(=O)N1Cc1ccccc1)N1CCN(c2ccccc2Cl)CC1		40%	inhibition (INH) [10]: 74%
CC(C)(C)OC(=O)NC[C@@H]1CCCN(C(=O)[C@@H]2CCC(=O)N2Cc2ccccc2)C1	26%	20%	
Cc1cccc(CN2C(=O)CC[C@H]2C(=O)N2CCC[C@@H](CNC(=O)OC(C)(C)C)C2)c1	28%	30%	
Cc1ccc(CN2C(=O)OC[C@H]2C(=O)N2CCC[C@H](CNC(=O)OC(C)(C)C)C2)cc1		20%	Activity [3]: 10%
COc1ccccc1CN1C(=O)CC[C@H]1C(=O)N1CCC[C@H](CNC(=O)OC(C)(C)C)C1	22%	50%	
CC(C)(C)OC(=O)NC[C@H]1CCCN(C(=O)[C@@H]2CCC(=O)N2Cc2ccc3ccccc3c2)C1	22%	22.3%	
CC(C)(C)OC(=O)NC[C@H]1CCCN(C(=O)[C@@H]2CCC(=O)N2Cc2ccccc2Br)C1	6%	50%	

SMILES	inhibition at 10 µM [1]	Activity [2]	further results
COc1ccc(CN2C(=O)CC[C@H]2C(=O)N2CCC[C@@H](CNC(=O)OC(C)(C)C)C2)cc1	7%	20%	
Cc1ccc(S(=O)(=O)NCC2CCCN(C(=O)[C@@H]3CCC(=O)N3Cc3ccccc3)C2)cc1 (mixture of isomers)		25%	Activity [3]: 0%; inhibition at 30 µM [4]: 72%
Cc1ccc(CN2C(=O)CC[C@H]2C(=O)N2CCC[C@@H](CNC(=O)[C@@H](NC(=O)OCc3ccccc3)C(C)C)C2)cc1		10%	
CC(C)(C)OC(=O)NC[C@@H]1CCCN(C(=O)[C@@H]2CCC(=O)N2Cc2ccc(Cl)cc2)C1	35%	50%	
CC(C)(C)OC(=O)NCC1CCCN(C(=O)[C@@H]2CCC(=O)N2C/C=C/c2ccccc2)C1 (mixture of isomers)		30%	Activity [3]: 0%; inhibition at 30 µM [4]: 42%
O=C([C@@H]1CCC(=O)N1Cc1ccccc1)N1CCN(c2ccccc2F)CC1		50%	inhibition (INH) [10]: 57%
CC1OCC(=O)N(Cc2ccccc2)[C@@H]1C(=O)N1CCC[C@@H](CNC(=O)OC(C)(C)C)C1 (stereo partly drawn)		20%	
Cc1ccc(CN2C(=O)CC[C@H]2C(=O)N2CCC[C@@H](CNC(=O)[C@H](CC(C)C)NC(=O)OCc3ccccc3)C2)cc1		30%	
Cc1ccc(CN2C(=O)CC[C@H]2C(=O)N2CCC[C@@H](CNS(=O)(=O)c3ccc(C)cc3)C2)cc1		40%	
Cc1ccc(CN2C(=O)CC[C@H]2C(=O)N2CCC[C@@H](CNC(=O)c3ccc(C)cc3)C2)cc1		30%	
CC(C)(C)OC(=O)NC[C@@H]1CCCN(C(=O)[C@@H]2CCC(=O)N2Cc2c(Cl)cccc2Cl)C1	24%	20%	
CC(C)(C)OC(=O)NC[C@@H]1CCCN(C(=O)[C@@H]2CCC(=O)N2Cc2ccc(Cl)c(Cl)c2)C1	27%	20%	
Cc1ccc(CN2C(=O)OC[C@H]2C(=O)N2CCC[C@@H](CNC(=O)OC(C)(C)C)C2)cc1		30%	Activity [3]: 54%
CC(C)(C)OC(=O)NC[C@H]1CCCN(C(=O)[C@@H]2CCC(=O)N2Cc2cccc(C#N)c2)C1	19%	20%	
COc1cccc(CN2C(=O)CC[C@H]2C(=O)N2CCC[C@@H](CNC(=O)OC(C)(C)C)C2)c1	34%		
COc1ccccc1CN1C(=O)CC[C@H]1C(=O)N1CCC[C@@H](CNC(=O)OC(C)(C)C)C1	32%	40%	
CC(C)(C)OC(=O)NC[C@H]1CCCN(C(=O)[C@@H]2CCC(=O)N2Cc2ccc(Br)cc2)C1	4%	50%	
CC(C)(C)C(=O)NCC1CCCN(C(=O)[C@@H]2CCC(=O)N2Cc2ccccc2)C1 (mixture of isomers)		50%	Activity [3]: 41%; inhibition at 30 µM [4]: 2.4%
CC(C)(C)OC(=O)NC[C@H]1CCCN(C(=O)[C@@H]2CCC(=O)N2Cc2ccccc2)C1	17%	50%	
Cc1ccc(CN2C(=O)CSCC2C(=O)N2CCC[C@@H](CNC(=O)OC(C)(C)C)C2)cc1 (single isomer, unassigned)	15%	30%	
Cc1cccc(CN2C(=O)CC[C@H]2C(=O)N2CCC[C@H](CNC(=O)OC(C)(C)C)C2)c1	13%	70%	
COc1ccc(CN2C(=O)CC[C@H]2C(=O)N2CCC[C@H](CNC(=O)OC(C)(C)C)C2)cc1	25%	20%	
Cc1ccc(CN2C(=O)CCC[C@H]2C(=O)N2CCC[C@@H](CNC(=O)OC(C)(C)C)C2)cc1	18%	40%	
Cc1ccc(CN2C(=O)CSC[C@H]2C(=O)N2CCCC(CNC(=O)OC(C)(C)C)C2)cc1 (single isomer, unassigned)	18%	30%	
CC(C)(C)OC(=O)NC[C@@H]1CCCN(C(=O)[C@@H]2CCC(=O)N2Cc2ccc(Br)cc2)C1	20%	40%	
CC(C)(C)OC(=O)NCC1CCN(C(=O)[C@@H]2CCC(=O)N2Cc2ccc(C#N)cc2)CC1		40%	Activity [3]: 0%; inhibition at 30 µM [4]: 34%
O=C(NCC1CCN(C(=O)[C@@H]2CCC(=O)N2Cc2ccc(Br)cc2)CC1)OCc1ccccc1		70%	Activity [3]: 25%; inhibition at 30 µM [4]: 11%
